The source of these data is patent US20230157996A1, “SMALL-MOLECULE INHIBITOR TARGETING EB VIRUS NUCLEAR ANTIGEN PROTEIN, PREPARATION METHOD AND USE THEREOF” (priority 2020, published 2023).

Like-named read-outs stand apart in the source and are kept apart here.

The test system of the assay is C666-1 cells. Put plainly: C666-1 cell viability single concentration (50 μM) inhibition rate (Resazurin). The assay is classed as cell-based. The following applies: for inhibition at 50 µM: Homo sapiens, C6661, 72 h, read-out: C666-1 cell viability single concentration (50 μM) inhibition rate, Ratio* (Inh %). The essentials: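 Resazurin fluorescence (560/590 nm, 3 h development) gave the proliferation inhibition rate, normalised to DMSO-treated and cell-free blank wells. Compound was tested at a single 50 μmol/L final concentration on C666-1 cells for 72 h at 37° C, with duplicate wells, after 24 h seeding.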
For orientation: The colour change of resazurin is a common sign of viable cells or microbes.

Where [1] appears, read: 50 μM compound, 72 hours, C666-1 cells.

With `COC(=O)c1cccc(C#CN(Cc2ccc(C)cc2)S(=O)(=O)c2ccc(C)cc2)c1-n1cccc1` [Example 342], the inhibition at 50 µM under setting [1] was < 10%.

In the case of `Cc1ccc(CN(C#Cc2cccc(C(=O)O)c2-n2cccc2)S(=O)(=O)c2ccc(C)cc2)cc1` [Example 343], the inhibition at 50 µM is < 10%.

Regarding `COC(=O)c1cccc(C#CN(Cc2ccc(F)cc2)S(=O)(=O)c2ccc(C)cc2)c1-n1cccc1` [Example 344], under setting [1], the “C666-1 cell viability single concentration (50 μM) inhibition rate, Ratio* (Inh %)” value is reported as “+ (*Inh %: <10% +)”.

`COC(=O)c1cccc(C#CN(Cc2ccc(C(F)(F)F)cc2)S(=O)(=O)c2ccc(C)cc2)c1-n1cccc1` [Example 346]: under setting [1], the inhibition at 50 µM lay in the range of 10 to 30%.

Take `Cc1ccc(S(=O)(=O)N(C#Cc2cccc(C(=O)O)c2-n2cccc2)Cc2ccc(C(F)(F)F)cc2)cc1` [Example 347]: the inhibition at 50 µM fell in the range of 30 to 50%.

Turning to `COC(=O)c1cccc(N2CC(Sc3ccc(C(C)C)cc3)C2)c1-n1cccc1` [Example 348, Methyl 3-(3-((4-isopropylphenyl)thio)azetidin-1-yl)-2-(1H-pyrrol-1-yl)benzoate], under setting [1], the inhibition at 50 µM was < 10%.

Turning to `COC(=O)c1cccc(N2CC(Sc3ccc(Cl)cc3)C2)c1-n1cccc1` [Example 349, Methyl 3-(3-((4-chlorophenyl)thio)azetidin-1-yl)-2-(1H-pyrrol-1-yl)benzoate], the inhibition at 50 µM under setting [1] was < 10%.

With `COC(=O)c1cccc(N2CC(SC3CCCCC3)C2)c1-n1cccc1` [Example 350, Methyl 3-(3-(cyclohexylthio)azetidin-1-yl)-2-(1H-pyrrol-1-yl)benzoate], the inhibition at 50 µM under setting [1] was < 10%.

As for `COC(=O)c1cccc(N2CC(Sc3ccccc3)C2)c1-n1cccc1` [Example 351, Methyl 3-(3-(phenylthio)azetidin-1-yl)-2-(1H-pyrrol-1-yl)benzoate], the inhibition at 50 µM under setting [1] was < 10%.

Take `COC(=O)c1cccc(N2CC(Sc3ccc(CO)cc3)C2)c1-n1cccc1` [Example 352, Methyl 3-(3-((4-(hydroxymethyl)phenyl)thio)azetidin-1-yl)-2-(1H-pyrrol-1-yl)benzoate]: the inhibition at 50 µM under setting [1] is > 50%.

Take `COC(=O)c1cccc(N2CC(S(=O)(=O)c3ccc(C(C)C)cc3)C2)c1-n1cccc1` [Example 353, Methyl 3-(3-((4-isopropylphenyl)sulfonyl)azetidin-1-yl)-2-(1H-pyrrol-1-yl)benzoate]: under setting [1], the inhibition at 50 µM fell in the range of 10 to 30%.

`COC(=O)c1cccc(N2CC(S(=O)(=O)c3ccc(Cl)cc3)C2)c1-n1cccc1` [Example 354, Methyl 3-(3-((4-chlorophenyl)sulfonyl)azetidin-1-yl)-2-(1H-pyrrol-1-yl)benzoate]: the inhibition at 50 µM under setting [1] fell in the range of 10 to 30%.

Regarding `COC(=O)c1cccc(N2CC(S(=O)(=O)C3CCCCC3)C2)c1-n1cccc1` [Example 355, Methyl 3-(3-(cyclohexylsulfonyl)azetidin-1-yl)-2-(1H-pyrrol-1-yl)benzoate], under setting [1], the inhibition at 50 µM was 10 to 30%.

As for `COC(=O)c1cccc(N2CC(S(=O)(=O)c3ccccc3)C2)c1-n1cccc1` [Example 356, Methyl 3-(3-(phenylsulfonyl)azetidin-1-yl)-2-(1H-pyrrol-1-yl)benzoate], the inhibition at 50 µM under setting [1] was < 10%.

On to `COC(=O)c1cccc(N2CC(S(=O)(=O)c3ccc(CO)cc3)C2)c1-n1cccc1` [Example 357, Methyl 3-(3-((4-(hydroxymethyl)phenyl)sulfonyl)azetidin-1-yl)-2-(1H-pyrrol-1-yl)benzoate], for which the inhibition at 50 µM under setting [1] was < 10%.

With `COC(=O)c1cccc(N2CC(Oc3ccc(COc4cncc(F)c4)cc3)C2)c1-n1cccc1` [Example 358, Methyl 3-(3-(4-(((5-fluoropyridin-3-yl)oxy)methyl)phenoxy)azetidin-1-yl)-2-(1H-pyrrol-1-yl)benzoate], under setting [1], the inhibition at 50 µM fell in the range of 10 to 30%.

Regarding `O=C(O)c1cccc(N2CC(Oc3ccc(COc4cncc(F)c4)cc3)C2)c1-n1cccc1` [Example 359, 3-(3-(4-(((5-fluoropyridin-3-yl)oxy)methyl)phenoxy)azetidin-1-yl)-2-(1H-pyrrol-1-yl)benzoic acid], the inhibition at 50 µM under setting [1] was < 10%.

With `COC(=O)c1cccc(N2CC(Oc3ccc(COc4cncnc4)cc3)C2)c1-n1cccc1` [Example 360, Methyl 3-(3-(4-((pyrimidin-5-yl-oxy)methyl)phenoxy)azetidin-1-yl)-2-(1H-pyrrol-1-yl)benzoate], the inhibition at 50 µM under setting [1] is < 10%.

Turning to `O=C(O)c1cccc(N2CC(Oc3ccc(COc4cncnc4)cc3)C2)c1-n1cccc1` [Example 361, 3-(3-(4-((pyrimidin-5-yl-oxy)methyl)phenoxy)azetidin-1-yl)-2-(1H-pyrrol-1-yl)benzoic acid], the inhibition at 50 µM under setting [1] is < 10%.

`COC(=O)c1cccc(N2CC(Oc3ccc(CNc4ccccc4)cc3)C2)c1-n1cccc1` [Example 362]: the inhibition at 50 µM under setting [1] was < 10%.

As to `O=C(O)c1cccc(N2CC(Oc3ccc(CNc4ccccc4)cc3)C2)c1-n1cccc1` [Example 363], under setting [1], the inhibition at 50 µM was < 10%.

Take `COC(=O)c1cccc(N2CC(Oc3ccc(CNCc4ccccc4)cc3)C2)c1-n1cccc1` [Example 364]: the inhibition at 50 µM under setting [1] was < 10%.

Take `O=C(O)c1cccc(N2CC(Oc3ccc(CNCc4ccccc4)cc3)C2)c1-n1cccc1` [Example 365]: under setting [1], the inhibition at 50 µM was < 10%.

With `COCCOCc1ccc(OC2CN(c3cccc(C(=O)OC)c3-n3cccc3)C2)cc1OCCOC` [Example 366, Methyl 3-(3-(3-(2-methoxyethoxy)-4-((2-methoxyethoxy)methyl)phenoxy)azetidin-1-yl)-2-(1H-pyrrol-1-yl)benzoate], the inhibition at 50 µM under setting [1] is 10 to 30%.

As for `COCCOCc1ccc(OC2CN(c3cccc(C(=O)O)c3-n3cccc3)C2)cc1OCCOC` [Example 367, 3-(3-(3-(2-methoxyethoxy)-4-((2-methoxyethoxy)methyl)phenoxy)azetidin-1-yl)-2-(1H-pyrrol-1-yl)benzoic acid], under setting [1], the inhibition at 50 µM is < 10%.

As for `N#CCCNC(=O)c1cccc(N2CC(Oc3ccc(CO)cc3)C2)c1-n1cccc1` [Example 368, N-(2-cyanoethyl)-3-(3-(4-(hydroxymethyl)phenoxy)azetidin-1-yl)-2-(1H-pyrrol-1-yl)benzamide], the inhibition at 50 µM under setting [1] was 10 to 30%.

With `CS(=O)(=O)NC(=O)c1cccc(N2CC(Oc3ccc(CO)cc3)C2)c1-n1cccc1` [Example 369, N-methylsulfonyl-(3-(3-(4-(hydroxymethyl)phenoxy)azetidin-1-yl)-2-(1H-pyrrol-1-yl))benzamide], the inhibition at 50 µM under setting [1] was < 10%.

Consider `COCCOCc1ccc(OC2CN(c3cccc(C(=O)OC)c3-n3cccc3)C2)cc1` [Example 370], for which the inhibition at 50 µM under setting [1] fell in the range of 10 to 30%.

`COCCOCc1ccc(OC2CN(c3cccc(C(=O)O)c3-n3cccc3)C2)cc1` [Example 371]: the inhibition at 50 µM under setting [1] was 10 to 30%.

Regarding `COC(=O)c1cccc(N2CC(Oc3ccc(COCCO)cc3)C2)c1-n1cccc1` [Example 372], under setting [1], the inhibition at 50 µM was 10 to 30%.

Take `O=C(O)c1cccc(N2CC(Oc3ccc(COCCO)cc3)C2)c1-n1cccc1` [Example 373]: the inhibition at 50 µM under setting [1] is < 10%.

For `COC(=O)c1cccc(N2CC(Oc3ccc(COCCNC(C)=O)cc3)C2)c1-n1cccc1` [Example 374], the inhibition at 50 µM under setting [1] lay within 10 to 30%.

Regarding `COC(=O)c1cccc(N2CC(Oc3ccc(COC4CCOC4)cc3)C2)c1-n1cccc1` (stereo not shown) [Example 375], under setting [1], the inhibition at 50 µM is < 10%.

With `O=C(O)c1cccc(N2CC(Oc3ccc(COC4CCOC4)cc3)C2)c1-n1cccc1` (stereo not shown) [Example 376], under setting [1], the inhibition at 50 µM is 10 to 30%.
